“And” between values parts separate entries of the source, which are not always exact repeats. Equal values may be shown once.
Columns and labels:
[1] = 7-day PK toxicity rat study; assay type: in vivo, Wistar Han rats; design: AUC(0 - t) / Cmax / Concentration (PK study): unit not given here; settings: for Concentration (PK study) / Liver weight: PK study; for Liver weight: individual animals
Source text: See the summary of the study design in Supplementary Table 31. Nine-week-old Wistar (Crl:WI (Han)) rats were obtained from Charles River Laboratories (Domaine des Oncins, Saint-Germain-Nuelles, France). […] Animals were examined daily for any altered clinical signs, body weights, and food consumption. Blood samples were taken at different timepoints after the test item administration, and toxicokinetic exposure assessed under the defined experimental conditions and analyzed using Phoenix (version 6.4 and 1.4) (Supplementary Table 32). Measurements included hematology and clinical chemistry measurements. Animals were euthanized and necropsied at the end of the dosing period. At necropsy, major organ systems and tissues were collected and weighed and then examined for gross lesions as well as for microscopic changes.

[2] = Blood to plasma ratio, mouse

## C[C@@H](CNC(=O)[C@H](O)C(C)(C)CO)NC(=O)c1cc(F)c(F)cc1F [MMV693183]
[1]; Females 60 mg/kg/day, Day 6, 8 hr
  Concentration (PK study): 642 and 776
[1]; Females 60 mg/kg/day, Day 7, 8 hr
  Concentration (PK study): 936 and 1060 and 1050
[1]; Females 200 mg/kg/day, Day 1, 0.5 hr
  Concentration (PK study): 81400 and 80500 and 68400
[1]; Females 200 mg/kg/day, Day 1, 1 hr
  Concentration (PK study): 65500 and 65700 and 66800
[1]; Females 200 mg/kg/day, Day 1, 4 hr
  Concentration (PK study): 12200 and 17800 and 10500
[1]; Females 200 mg/kg/day, Day 3, 0.5 hr
  Concentration (PK study): 70400 and 75700 and 61100
[1]; Females 200 mg/kg/day, Day 3, 2 hr
  Concentration (PK study): 18000 and 10900 and 12000
[1]; Females 200 mg/kg/day, Day 3, 8 hr
  Concentration (PK study): 2420 and 2030 and 1670
[1]; Females 200 mg/kg/day, Day 4, 0.5 hr
  Concentration (PK study): 47900 and 69400 and 35700
[1]; Females 200 mg/kg/day, Day 4, 8 hr
  Concentration (PK study): 1340 and 729 and 914
[1]; Females 200 mg/kg/day, Day 4, 24 hr
  Concentration (PK study): LLoQ
[1]; Females 200 mg/kg/day, Day 5, 2 hr
  Concentration (PK study): 3640 and 1960 and 3540
[1]; Females 200 mg/kg/day, Day 5, 24 hr
  Concentration (PK study): LLoQ
[1]; Females 200 mg/kg/day, Day 6, 0.5 hr
  Concentration (PK study): 17200 and 19900 and 13800
[1]; Females 200 mg/kg/day, Day 6, 1 hr
  Concentration (PK study): 5360 and 3620 and 4830
[1]; Females 200 mg/kg/day, Day 6, 2 hr
  Concentration (PK study): 2060 and 2560
[1]; Females 200 mg/kg/day, Day 6, 4 hr
  Concentration (PK study): 1070 and 1300 and 1240
[1]; Females 200 mg/kg/day, Day 6, 24 hr
  Concentration (PK study): LLoQ
[1]; Females 200 mg/kg/day, Day 7, 0.5 hr
  Concentration (PK study): 16600 and 15200 and 10900
[1]; Females 200 mg/kg/day, Day 7, 1 hr
  Concentration (PK study): 7160 and 4910 and 4560
[1]; Females 200 mg/kg/day, Day 7, 8 hr
  Concentration (PK study): 446 and 524 and 294
[1]; Females 200 mg/kg/day, Day 7, 24 hr
  Concentration (PK study): LLoQ
[1]; Males 60 mg/kg/day, Day 1, 1 hr
  Concentration (PK study): 20300 and 24600 and 25700
[1]; Males 60 mg/kg/day, Day 1, 2 hr
  Concentration (PK study): 8920
[1]; Males 60 mg/kg/day, Day 1, 8 hr
  Concentration (PK study): 595 and 761 and 549
[1]; Males 60 mg/kg/day, Day 3, 0.5 hr
  Concentration (PK study): 8790 and 10300 and 7140
[1]; Males 60 mg/kg/day, Day 3, 1 hr
  Concentration (PK study): 5740 and 6580 and 9120
[1]; Males 60 mg/kg/day, Day 4, 1 hr
  Concentration (PK study): 4970 and 6410 and 5310
[1]; Males 60 mg/kg/day, Day 4, 2 hr
  Concentration (PK study): 2150
[1]; Males 60 mg/kg/day, Day 5, 0.5 hr
  Concentration (PK study): 4090 and 5780 and 6430
[1]; Males 60 mg/kg/day, Day 5, 1 hr
  Concentration (PK study): 2810 and 3810 and 4490
[1]; Males 60 mg/kg/day, Day 5, 2 hr
  Concentration (PK study): 833
[1]; Males 60 mg/kg/day, Day 6, 0.5 hr
  Concentration (PK study): 3190 and 3990 and 2700
[1]; Males 60 mg/kg/day, Day 6, 1 hr
  Concentration (PK study): 2440 and 2560 and 2960
[1]; Males 60 mg/kg/day, Day 6, 2 hr
  Concentration (PK study): 793
[1]; Males 60 mg/kg/day, Day 7, 0.5 hr
  Concentration (PK study): 4630 and 4120 and 3030
[1]; Males 60 mg/kg/day, Day 7, 1 hr
  Concentration (PK study): 2360 and 3070 and 4490
[1]; Males 60 mg/kg/day, Day 7, 2 hr
  Concentration (PK study): 852
[1]; females, 60 mg/kg/day
  Liver weight: 7.845 g and 6.555 g and 7.19 g and 6.045 g and 7.197 g and 6.726 g and 6.103 g and 6.171 g and 6.163 g and 5.278 g and 7.062 g and 7.17 g and 6.744 g and 6.318 g and 6.169 g and 6.575 g and 6.983 g and 6.456 g
[1]; females, 200 mg/kg/day
  Liver weight: 8.221 g and 8.493 g and 7.964 g and 8.859 g and 9.347 g and 7.27 g and 8.193 g and 8.745 g and 8.636 g and 8.349 g and 8.711 g and 8.055 g and 7.728 g and 8.238 g and 8.802 g and 8.338 g and 9.482 g
[1]; males, 60 mg/kg/day
  Liver weight: 11.319 g and 10.601 g and 11.37 g and 12.154 g and 11.768 g and 12.437 g and 11.213 g and 11.313 g and 11.86 g and 10.827 g and 10.923 g and 10.921 g and 10.76 g and 12.104 g and 11.841 g and 10.238 g and 12.991 g and 11.082 g
[1]; males, 200 mg/kg/day
  Liver weight: 14.027 g and 16.129 g and 13.438 g and 12.573 g and 14.48 g and 14.447 g and 11.375 g and 14.317 g and 13.757 g and 13.38 g and 14.677 g and 13.312 g and 12.998 g and 12.7 g and 12.791 g and 13.174 g and 13.587 g and 12.628 g
[1]; day 3 to day 7 vs day 1
  decrease of exposure at later timepoints: up to 11 fold
[1]; in order: females 60, 200 mg/kg/day
  Increased mitoses, hepatocellular: animals affected: 1
[1]; in order: males 60, 200 (n=18), females 60 (n=18), 200 (n=17) mg/kg/day
  Hypertrophy, centrilobular: animals affected: 18 and 14 and 17
[1]; in order: males 60, 200, females 60, 200 mg/kg/day
  Extramedullary hematopoiesis: animals affected: 10 and 14 and 9 and 13
[1]; in order: males 60, females 60, 200 mg/kg/day
  Necrosis, hepatocellular: animals affected: 1
[2]
  B:P: 0.98

— PMC9021288 (Nature Communications, 2022)
